Measured values from the NIST ThermoML archive (doi:10.1016/j.fluid.2015.03.009).
Where “and” joins values, the source holds several entries; their conditions need not be identical. Equal entries are not always repeated. ± gives the expanded uncertainty stated by the source.

Details: Liquid, Closed cell (Static) method

SMILES	vapor or sublimation pressure (348.15 K)	vapor or sublimation pressure (373.15 K)
CO [methanol]	150.71 ± 0.54 kPa and 150.69 ± 0.54 kPa and 150.67 ± 0.54 kPa	352.64 ± 0.74 kPa and 352.62 ± 0.74 kPa and 352.7 ± 0.74 kPa
CCCCCC [hexane]	123.12 ± 0.38 kPa and 123.03 ± 0.38 kPa and 122.84 ± 0.38 kPa	247.22 ± 0.55 kPa and 245.99 ± 0.55 kPa and 245.79 ± 0.55 kPa
CCO [ethanol]	88.59 ± 0.36 kPa and 88.58 ± 0.36 kPa	224.37 ± 0.48 kPa and 224.31 ± 0.48 kPa
